The text below walks through data of ChEMBL document CHEMBL4406914, “Impact of Minor Structural Modifications on Properties of a Series of mTOR Inhibitors” (ACS Med Chem Lett, 2019).

Structures are written as SMILES. pIC50, pKi: −log10 of the molar value. ≈ marks a conversion by molar mass, not a printed value. Calls of active or inactive are those of the source. The rule behind the calls is not given here.

A short description of data set [1]: Kinetic aqueous solubility of compound in phosphate buffer at pH 7.4 at 100 uM at 20 degree C shaken for 24 hrs by HPLC analysis. The format is physicochemical. The following applies: read-out: Kinetic_solubility.
Data set [2] can be described thus: Lipophilicity, ChromlogD of compound at 0.5 mM at pH 6.5 by UPLC-UV analysis. The following applies: buffer, pH 6.5, 500 µM.
In data set [3] the target is Phosphatidylinositol 4,5-bisphosphate 3-kinase catalytic subunit beta isoform (Homo sapiens) (UniProt P42338). Put plainly: Inhibition of wild-type human partial length PIK3CB (P118 to S1070 residues) expressed in mammalian expression system at 10 uM by Kinomescan method.
A short description of data set [4]: Hepatic intrinsic clearance in human Hepatocytes assessed per at 1 uM measured upto 90 mins by LC-MS/MS analysis. The format is ADME, cell-based, Hepatocyte. The following applies: 1.5 h.
Data set [5] in a line: Metabolic stability in human liver microsomes assessed as parent compound remaining at 1 uM measured at 15 mins in presence of phase 1 metabolism cofactors by LC-MS/MS analysis. The format is ADME, Microsome. The following applies: read-out: Stability. On the technique in general: Liver microsomes are vesicles of endoplasmic reticulum, rich in cytochrome P450 enzymes.
For a further data set, the target named is mTORC1 (Homo sapiens, UniProt P42345). Put plainly: Inhibition of mTORC1 in human A431 cells assessed as S6RP phosphorylation incubated for 3 hrs by HTRF assay. The format is cell-based. On the technique in general: In TR-FRET formats the signal depends on donor and acceptor labels being close together.
Data set [6] deals with Serine/threonine-protein kinase mTOR (Homo sapiens, UniProt P42345). Put plainly: Inhibition of human recombinant GST-tagged mTOR catalytic domain (1360 to 2549 residues) expressed in baculovirus expression system using GFP-4E-BP1 peptide as substrate incubated for 1 hr by LanthaScreen assay.
Data set [7] has as its target Phosphatidylinositol 4,5-bisphosphate 3-kinase catalytic subunit gamma isoform (Homo sapiens) (UniProt P48736). Description: Inhibition of wild-type human partial length PIK3CG (S144 to A1102 residues) expressed in mammalian expression system at 10 uM by Kinomescan method.
The target of data set [8] is Phosphatidylinositol 4-phosphate 3-kinase C2 domain-containing subunit beta (Homo sapiens) (UniProt O00750). Put plainly: Inhibition of wild-type human partial length PIK3C2B (M1 to L1634 residues) expressed in mammalian expression system at 10 uM by Kinomescan method.
For a further data set, the target named is mTORC2 (Homo sapiens, UniProt P42345). Put plainly: Inhibition of mTORC2 in human A431 cells assessed as AKT phosphorylation at S473 residue incubated for 3 hrs by HTRF assay. The class given is cell-based.
The target of data set [9] is T1, Phosphatidylinositol 3-kinase C2 domain-containing subunit gamma (Homo sapiens) (UniProt O75747).
T1 sequence (whole entry): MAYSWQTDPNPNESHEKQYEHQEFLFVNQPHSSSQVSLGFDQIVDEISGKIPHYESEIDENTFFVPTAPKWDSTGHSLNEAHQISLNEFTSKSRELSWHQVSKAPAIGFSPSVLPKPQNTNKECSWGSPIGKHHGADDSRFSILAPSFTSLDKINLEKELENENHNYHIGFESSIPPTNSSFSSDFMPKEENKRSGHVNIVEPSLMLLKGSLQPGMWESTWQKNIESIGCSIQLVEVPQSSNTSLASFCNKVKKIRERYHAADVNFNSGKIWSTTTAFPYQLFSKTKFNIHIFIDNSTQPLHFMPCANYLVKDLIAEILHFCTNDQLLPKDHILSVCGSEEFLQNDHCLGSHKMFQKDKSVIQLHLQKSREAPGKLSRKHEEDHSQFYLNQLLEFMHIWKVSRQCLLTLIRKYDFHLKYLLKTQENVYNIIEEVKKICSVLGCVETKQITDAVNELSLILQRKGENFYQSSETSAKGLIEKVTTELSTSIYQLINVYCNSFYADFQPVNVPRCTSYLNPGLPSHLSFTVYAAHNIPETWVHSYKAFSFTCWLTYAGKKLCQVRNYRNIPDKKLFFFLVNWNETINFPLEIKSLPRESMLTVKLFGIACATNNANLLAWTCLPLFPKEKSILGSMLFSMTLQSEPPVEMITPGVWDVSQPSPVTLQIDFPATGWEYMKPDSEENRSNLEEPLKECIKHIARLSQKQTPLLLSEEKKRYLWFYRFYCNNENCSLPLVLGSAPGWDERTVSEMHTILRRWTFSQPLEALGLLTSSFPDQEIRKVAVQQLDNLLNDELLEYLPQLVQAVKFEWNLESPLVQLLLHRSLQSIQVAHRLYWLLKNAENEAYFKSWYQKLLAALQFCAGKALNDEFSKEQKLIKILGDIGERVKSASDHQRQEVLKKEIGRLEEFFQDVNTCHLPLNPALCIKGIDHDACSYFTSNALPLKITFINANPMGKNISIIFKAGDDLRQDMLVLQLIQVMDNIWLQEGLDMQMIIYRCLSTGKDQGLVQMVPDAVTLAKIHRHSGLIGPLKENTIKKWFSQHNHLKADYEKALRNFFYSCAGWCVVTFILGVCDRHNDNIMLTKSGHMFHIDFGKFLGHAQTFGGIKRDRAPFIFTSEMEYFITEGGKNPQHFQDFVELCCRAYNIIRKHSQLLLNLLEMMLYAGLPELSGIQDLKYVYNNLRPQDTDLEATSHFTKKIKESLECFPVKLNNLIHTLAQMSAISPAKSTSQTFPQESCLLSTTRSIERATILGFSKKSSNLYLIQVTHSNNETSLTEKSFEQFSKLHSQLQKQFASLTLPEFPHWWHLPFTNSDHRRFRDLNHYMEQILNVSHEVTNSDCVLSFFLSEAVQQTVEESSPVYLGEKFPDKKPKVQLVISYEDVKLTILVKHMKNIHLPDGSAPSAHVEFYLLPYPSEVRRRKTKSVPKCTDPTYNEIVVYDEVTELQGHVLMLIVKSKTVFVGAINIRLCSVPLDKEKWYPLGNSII
Put plainly: Inhibition of wild-type human partial length PIK3C2G (M1 to I1446 residues) expressed in mammalian expression system at 10 uM by Kinomescan method.

In data set [10] the target is T2, Phosphatidylinositol 4,5-bisphosphate 3-kinase catalytic subunit delta isoform (Homo sapiens) (UniProt O00329).
T2 sequence (whole entry): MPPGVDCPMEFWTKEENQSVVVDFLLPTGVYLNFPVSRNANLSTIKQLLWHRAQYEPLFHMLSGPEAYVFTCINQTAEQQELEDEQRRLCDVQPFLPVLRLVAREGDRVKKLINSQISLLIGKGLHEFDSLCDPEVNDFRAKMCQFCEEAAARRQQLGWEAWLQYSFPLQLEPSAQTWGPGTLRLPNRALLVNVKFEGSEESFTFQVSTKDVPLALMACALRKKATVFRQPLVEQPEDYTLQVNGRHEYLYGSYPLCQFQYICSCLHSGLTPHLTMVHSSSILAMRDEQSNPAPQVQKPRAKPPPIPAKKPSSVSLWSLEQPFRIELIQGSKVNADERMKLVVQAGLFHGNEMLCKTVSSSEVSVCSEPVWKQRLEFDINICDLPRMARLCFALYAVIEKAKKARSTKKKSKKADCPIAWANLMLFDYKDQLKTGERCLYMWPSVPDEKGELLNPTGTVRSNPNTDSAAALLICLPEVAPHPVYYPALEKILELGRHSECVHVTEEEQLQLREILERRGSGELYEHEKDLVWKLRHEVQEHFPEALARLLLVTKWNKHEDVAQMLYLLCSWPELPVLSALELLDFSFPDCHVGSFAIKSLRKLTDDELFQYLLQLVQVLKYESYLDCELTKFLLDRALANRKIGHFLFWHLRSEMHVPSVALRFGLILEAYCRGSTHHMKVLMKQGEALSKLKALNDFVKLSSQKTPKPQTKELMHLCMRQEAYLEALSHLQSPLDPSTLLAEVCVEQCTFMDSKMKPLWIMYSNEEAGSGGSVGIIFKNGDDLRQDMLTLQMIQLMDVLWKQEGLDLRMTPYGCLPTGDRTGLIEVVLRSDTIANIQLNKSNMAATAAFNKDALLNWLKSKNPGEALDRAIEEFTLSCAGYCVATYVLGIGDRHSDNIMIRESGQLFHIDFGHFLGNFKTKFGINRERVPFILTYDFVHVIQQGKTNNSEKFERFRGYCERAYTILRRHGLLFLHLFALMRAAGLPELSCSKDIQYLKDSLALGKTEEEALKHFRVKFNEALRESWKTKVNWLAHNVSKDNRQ
Put plainly: Inhibition of wild-type human partial length PIK3CD (R108 to Q1044 residues) expressed in mammalian expression system at 10 uM by Kinomescan method.

Data set [11] concerns the target Phosphatidylinositol 4,5-bisphosphate 3-kinase catalytic subunit alpha isoform (Homo sapiens, UniProt P42336).
Description: Inhibition of PI3Kalpha (unknown origin) using PIP2 as substrate measured after 30 mins by TR-FRET assay

Chain of Phosphatidylinositol 4,5-bisphosphate 3-kinase catalytic subunit gamma isoform (Homo sapiens) (P48736 whole entry, looked up, the tested form may be a part, canonical isoform): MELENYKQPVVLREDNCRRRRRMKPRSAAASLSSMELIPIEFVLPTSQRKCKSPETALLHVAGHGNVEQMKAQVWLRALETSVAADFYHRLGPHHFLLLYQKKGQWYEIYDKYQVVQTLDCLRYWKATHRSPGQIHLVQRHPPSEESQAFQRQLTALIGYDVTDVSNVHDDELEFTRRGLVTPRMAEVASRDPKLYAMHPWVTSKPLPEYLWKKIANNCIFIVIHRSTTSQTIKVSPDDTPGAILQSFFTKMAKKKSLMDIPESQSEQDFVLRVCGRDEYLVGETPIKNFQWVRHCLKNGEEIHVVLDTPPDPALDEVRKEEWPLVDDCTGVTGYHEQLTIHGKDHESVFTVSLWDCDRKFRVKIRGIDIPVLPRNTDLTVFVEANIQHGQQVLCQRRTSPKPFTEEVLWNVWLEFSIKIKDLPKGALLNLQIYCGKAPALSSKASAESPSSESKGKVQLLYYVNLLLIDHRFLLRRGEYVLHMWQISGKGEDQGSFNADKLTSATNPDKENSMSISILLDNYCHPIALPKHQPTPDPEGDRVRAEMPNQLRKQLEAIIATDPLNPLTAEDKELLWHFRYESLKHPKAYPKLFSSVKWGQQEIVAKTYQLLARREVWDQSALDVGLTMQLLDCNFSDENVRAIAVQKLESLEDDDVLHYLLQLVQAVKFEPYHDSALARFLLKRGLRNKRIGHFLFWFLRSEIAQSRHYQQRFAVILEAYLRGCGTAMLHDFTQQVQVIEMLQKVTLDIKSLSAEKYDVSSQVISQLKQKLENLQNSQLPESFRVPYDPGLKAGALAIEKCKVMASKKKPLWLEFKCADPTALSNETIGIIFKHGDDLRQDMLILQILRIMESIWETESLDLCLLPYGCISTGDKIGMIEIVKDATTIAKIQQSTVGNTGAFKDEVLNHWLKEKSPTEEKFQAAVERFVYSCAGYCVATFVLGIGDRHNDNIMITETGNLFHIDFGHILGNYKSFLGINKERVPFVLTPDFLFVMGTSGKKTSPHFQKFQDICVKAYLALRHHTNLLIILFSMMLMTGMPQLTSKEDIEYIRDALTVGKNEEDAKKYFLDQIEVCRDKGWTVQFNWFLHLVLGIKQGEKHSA
Chain of Phosphatidylinositol 4-phosphate 3-kinase C2 domain-containing subunit beta (Homo sapiens) (O00750 whole entry, the tested form may be a part): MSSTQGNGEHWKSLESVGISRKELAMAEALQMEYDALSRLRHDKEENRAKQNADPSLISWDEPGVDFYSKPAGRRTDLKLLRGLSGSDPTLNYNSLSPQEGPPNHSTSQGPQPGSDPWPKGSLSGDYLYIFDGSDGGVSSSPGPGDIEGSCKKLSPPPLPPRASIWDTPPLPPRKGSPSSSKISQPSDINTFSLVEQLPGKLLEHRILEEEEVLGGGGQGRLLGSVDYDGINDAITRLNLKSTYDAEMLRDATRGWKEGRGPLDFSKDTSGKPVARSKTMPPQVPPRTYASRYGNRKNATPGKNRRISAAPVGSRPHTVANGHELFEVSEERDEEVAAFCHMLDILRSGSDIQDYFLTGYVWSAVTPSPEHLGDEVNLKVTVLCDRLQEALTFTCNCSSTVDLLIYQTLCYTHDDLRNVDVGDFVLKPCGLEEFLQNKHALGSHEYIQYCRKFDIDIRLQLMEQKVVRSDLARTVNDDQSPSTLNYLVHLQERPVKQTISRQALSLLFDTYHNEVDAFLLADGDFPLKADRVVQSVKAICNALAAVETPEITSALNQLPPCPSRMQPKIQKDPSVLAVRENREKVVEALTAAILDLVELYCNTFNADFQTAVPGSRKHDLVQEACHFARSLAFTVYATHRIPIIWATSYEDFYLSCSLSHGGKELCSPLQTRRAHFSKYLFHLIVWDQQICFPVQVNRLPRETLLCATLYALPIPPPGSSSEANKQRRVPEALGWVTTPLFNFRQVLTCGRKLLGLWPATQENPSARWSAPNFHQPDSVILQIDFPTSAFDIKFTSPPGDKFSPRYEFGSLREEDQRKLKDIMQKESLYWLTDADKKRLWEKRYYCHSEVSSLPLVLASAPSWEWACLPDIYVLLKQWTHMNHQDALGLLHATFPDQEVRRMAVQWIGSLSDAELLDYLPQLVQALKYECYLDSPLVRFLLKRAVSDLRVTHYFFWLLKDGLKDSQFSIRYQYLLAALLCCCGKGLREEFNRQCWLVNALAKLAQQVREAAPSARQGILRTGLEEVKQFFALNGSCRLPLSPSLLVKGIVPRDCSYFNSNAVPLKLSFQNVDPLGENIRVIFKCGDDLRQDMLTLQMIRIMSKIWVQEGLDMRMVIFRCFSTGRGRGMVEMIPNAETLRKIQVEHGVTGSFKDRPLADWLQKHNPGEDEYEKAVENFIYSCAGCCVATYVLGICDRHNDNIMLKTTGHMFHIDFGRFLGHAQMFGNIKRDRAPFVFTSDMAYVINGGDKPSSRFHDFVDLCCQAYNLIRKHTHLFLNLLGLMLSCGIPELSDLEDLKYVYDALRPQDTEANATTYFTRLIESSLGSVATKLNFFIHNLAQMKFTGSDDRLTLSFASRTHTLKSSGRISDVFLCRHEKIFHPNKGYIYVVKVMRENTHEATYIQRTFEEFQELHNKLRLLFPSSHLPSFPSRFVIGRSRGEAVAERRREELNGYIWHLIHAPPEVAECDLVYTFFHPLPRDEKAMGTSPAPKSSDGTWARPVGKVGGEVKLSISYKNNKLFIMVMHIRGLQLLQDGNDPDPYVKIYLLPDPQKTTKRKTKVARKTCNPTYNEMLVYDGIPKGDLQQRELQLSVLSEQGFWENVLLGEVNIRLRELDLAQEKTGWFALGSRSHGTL
Chain of Phosphatidylinositol 4,5-bisphosphate 3-kinase catalytic subunit alpha isoform (P42336 whole entry, canonical isoform): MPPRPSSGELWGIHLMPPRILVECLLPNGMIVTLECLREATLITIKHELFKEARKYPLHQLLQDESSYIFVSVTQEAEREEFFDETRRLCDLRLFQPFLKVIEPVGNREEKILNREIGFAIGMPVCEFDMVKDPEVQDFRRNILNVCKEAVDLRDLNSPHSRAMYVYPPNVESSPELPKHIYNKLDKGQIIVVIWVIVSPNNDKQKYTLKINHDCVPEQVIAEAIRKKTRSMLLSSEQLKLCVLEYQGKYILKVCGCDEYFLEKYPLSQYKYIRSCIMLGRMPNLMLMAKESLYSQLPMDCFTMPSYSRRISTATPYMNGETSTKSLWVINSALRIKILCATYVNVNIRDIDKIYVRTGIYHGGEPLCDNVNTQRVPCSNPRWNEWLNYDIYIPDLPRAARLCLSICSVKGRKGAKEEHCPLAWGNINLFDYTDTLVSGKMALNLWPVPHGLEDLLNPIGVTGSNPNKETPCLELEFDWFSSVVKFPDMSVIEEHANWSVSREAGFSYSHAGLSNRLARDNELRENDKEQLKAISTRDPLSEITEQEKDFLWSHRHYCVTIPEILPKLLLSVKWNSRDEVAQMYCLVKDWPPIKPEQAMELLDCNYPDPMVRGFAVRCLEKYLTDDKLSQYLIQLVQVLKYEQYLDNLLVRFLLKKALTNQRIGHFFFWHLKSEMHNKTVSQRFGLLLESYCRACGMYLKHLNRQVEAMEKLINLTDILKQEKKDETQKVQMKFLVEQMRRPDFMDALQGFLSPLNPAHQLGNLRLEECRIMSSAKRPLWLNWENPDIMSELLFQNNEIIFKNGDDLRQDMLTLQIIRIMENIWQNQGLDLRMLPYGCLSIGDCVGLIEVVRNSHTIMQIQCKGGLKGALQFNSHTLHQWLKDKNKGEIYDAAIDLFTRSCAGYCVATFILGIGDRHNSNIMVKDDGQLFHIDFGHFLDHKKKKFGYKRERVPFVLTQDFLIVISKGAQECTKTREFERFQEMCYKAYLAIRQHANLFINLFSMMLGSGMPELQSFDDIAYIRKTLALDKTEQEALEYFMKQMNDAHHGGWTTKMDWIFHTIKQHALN
Chain of Phosphatidylinositol 4,5-bisphosphate 3-kinase catalytic subunit beta isoform (Homo sapiens) (P42338 whole entry, looked up, the tested form may be a part, canonical isoform): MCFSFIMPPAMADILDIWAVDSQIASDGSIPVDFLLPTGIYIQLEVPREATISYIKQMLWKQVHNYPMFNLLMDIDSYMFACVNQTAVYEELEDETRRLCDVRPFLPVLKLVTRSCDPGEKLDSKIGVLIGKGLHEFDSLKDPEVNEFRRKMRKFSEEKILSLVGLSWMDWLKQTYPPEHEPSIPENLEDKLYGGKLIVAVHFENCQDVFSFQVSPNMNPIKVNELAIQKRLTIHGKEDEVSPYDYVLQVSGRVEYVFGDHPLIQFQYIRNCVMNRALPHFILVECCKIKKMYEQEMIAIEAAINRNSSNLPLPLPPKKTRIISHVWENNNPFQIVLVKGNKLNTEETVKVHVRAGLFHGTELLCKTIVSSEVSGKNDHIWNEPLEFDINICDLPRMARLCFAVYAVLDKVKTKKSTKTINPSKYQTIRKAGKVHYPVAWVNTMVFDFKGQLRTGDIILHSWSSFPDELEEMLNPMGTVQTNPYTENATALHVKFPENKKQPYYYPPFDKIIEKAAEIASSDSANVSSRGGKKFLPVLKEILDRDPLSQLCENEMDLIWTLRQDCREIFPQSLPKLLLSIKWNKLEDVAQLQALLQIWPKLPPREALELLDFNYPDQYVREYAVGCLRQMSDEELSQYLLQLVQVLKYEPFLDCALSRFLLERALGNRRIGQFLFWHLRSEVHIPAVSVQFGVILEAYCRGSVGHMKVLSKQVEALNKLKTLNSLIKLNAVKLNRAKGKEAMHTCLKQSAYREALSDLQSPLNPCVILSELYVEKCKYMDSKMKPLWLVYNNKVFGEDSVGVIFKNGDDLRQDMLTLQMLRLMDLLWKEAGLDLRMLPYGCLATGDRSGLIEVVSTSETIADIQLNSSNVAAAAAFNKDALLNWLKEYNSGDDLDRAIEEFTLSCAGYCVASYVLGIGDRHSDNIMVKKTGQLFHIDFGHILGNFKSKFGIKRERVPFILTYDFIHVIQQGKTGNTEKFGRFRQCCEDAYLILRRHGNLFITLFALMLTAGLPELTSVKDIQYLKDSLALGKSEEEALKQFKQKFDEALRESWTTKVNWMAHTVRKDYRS

By pIC50 is commonly meant the negative decadic logarithm of the IC50, by convention in mol/L. The term pKi denotes −log10 of the Ki, conventionally taken in molar units. Take `CC(C)n1nc(-c2ccc3oc(N)nc3c2)c2c(=O)[nH]cnc21`: the solubility kinetic at 24 h, 100 µM in data set [1] came out at 3 µM (≈ 0.931 µg/mL). This compound also displayed a ChromlogD6.5 in data set [2] of 0.9. Further, the inhibition entry in [3], in data set [7], in data set [8], in data set [9] and in [10] was “inactive” throughout. The compound further showed a CLH in data set [4] of under 5 µL/min. The remaining at 0.25 h, 1 µM in data set [5] is over 95%. Besides, the results for the pIC50 on mTORC1 and at mTORC2 were 7.52 and 6.89, respectively. Also, the pKi in data set [6] is 7.55; in [11], under 5.00.
